According to patent US10285986B2, “Compounds and anti-tumor NQO1 substrates” (The Board of Trustees of the University of Illinois, priority 2011, dated 2019):
Values after ≈ are worked out from the molar mass of the structure shown. Values joined by “and” are separate entries in the source; they are usually repeats but may differ in a detail not shown here. Equal values may be shown once. Read-outs that look alike come from different tables or passages of the source.

What was measured:
MCF-7 cells = test: Cytotoxicity to MCF-7 cells with or without 25 μM dicoumarol (sulforhodamine B assay); format: cell-based, human
Description: The NQO1-dependent cytotoxicity of the first set of derivatives was determined in MCF-7 cells which express high levels of NQO1. Cells were exposed to DNQ for 2 hours in the presence or absence of 25 μM DIC. The media was then removed and cells were washed once with media then fresh media was added and the cells were incubated for 72 hours. Cell death was assessed using the sulforhodamine B assay previously described. […] Substitution off the nitrogen appeared well tolerated (4-14 and 4-15).
The DNQ derivatives synthesized were assayed for their toxicity to MCF-7 cells with or without DIC. The data from these experiments is organized in Table 4.2. […] This tolerance of sterically-demanding substituents corresponds with a flexible and promiscuous NQO1 active site. The poor activity of hydroxyl derivative 4-41 may be a result of either poor binding with the largely hydrophobic NQO1 active site or with an excessively strong substrate-enzyme interaction because of hydrogen bonding.

NQO1 = NQO1 (Homo sapiens, UniProt P15559); test: NQO1 enzymatic measurements in vitro; format: biochemical; settings: 1 μM substrate
Sequence of NQO1 (P15559 whole entry): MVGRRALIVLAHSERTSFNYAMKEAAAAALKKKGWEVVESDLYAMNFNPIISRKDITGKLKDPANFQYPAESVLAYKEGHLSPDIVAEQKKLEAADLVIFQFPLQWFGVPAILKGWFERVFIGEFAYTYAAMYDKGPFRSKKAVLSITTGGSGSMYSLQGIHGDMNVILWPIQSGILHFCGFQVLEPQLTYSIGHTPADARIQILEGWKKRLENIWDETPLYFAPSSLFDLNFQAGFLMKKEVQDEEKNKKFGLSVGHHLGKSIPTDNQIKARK
Description: As further evidence that the activity of these DNQ derivatives is dependent on their ability to be reduced by NQO1, full enzymatic measurements in vitro were performed. We found a strong correlation between catalytic efficiency of substrates in vitro and their cell culture toxicity. […] This provides strong evidence that the cytotoxicity of DNQ and its derivatives are dependent primarily upon the activity of NQO1 within the cell.

[1] = Aqueous solubility in pH 7.4 PBS by LC-MS; format: physicochemical; settings: phosphate buffered saline, pH 7.4, aqueous buffer, thermodynamic from solid, PBS pH 7.4; Table 4.3
Description: The aqueous solubility of DNQ at pH 7.4 in phosphate buffered saline (PBS) was measured by LC-MS. DNQ was sonicated for 30 minutes in PBS then undissolved solid was removed by filtration through a 0.45 μm syringe filter and the filtrate was analyzed by LC-MS (λ=275 nm, ESI-TOF in negative mode). The optimal sonication time was determined by sonicating DNQ for 1, 5, 10, and 30 minutes. While the concentration of DNQ in solution increased substantially between 1, 5, and 10 minutes, there was only a minor difference between 10 and 30 minutes. During the 30 minute sonication the water bath warmed to 45° C. (samples were cooled to room temperature before filtration). A calibration curve was generated from 1-100 μM by dissolving DNQ in methanol to a concentration of 500 μM and making dilutions of this stock in 80:20 water:methanol. The calibration curve (measure by UV absorbance) was linear over this range; 1 μM was approximately the limit of detection. […] The solution was very pale yellow.
The aqueous solubility of the compounds was determined by an LC-MS assay as described in the specification above. We applied the calibration curve generated for DNQ to the derivatives under the assumption that the UV profile of the derivatives of DNQ would be similar to that of DNQ.
After sonication and filtration most of the aqueous solutions were colorless. The solutions of DNQ, 4-31, and 4-37 were faintly yellow while 4-8, 4-14 and 4-41 were substantially more colored. The solution of 4-8, 4-14 and 4-41 were diluted 10-fold with PBS prior to LC-MS analysis to ensure that the concentrations fell within the range of the calibration curve.

[2] = Solubility in 20% HPβCD solution (pH modulation protocol); format: physicochemical; settings: 20% HPβCD; for solubility: 20% HPβCD in pH 7.4 PBS, pH 7.4, aqueous with cosolvent or surfactant or cyclodextrin, thermodynamic from solid, Table 4.3
Description: The protocol for formulating DNQ compounds in HPβCD is as follows: the DNQ compound is slurried in a 20% solution of HPβCD in pH 7.4 PBS and the pH is then increased by the addition of 10 M NaOH to induce dissolution of the DNQ compound. The pH is returned to pH 7.5-8.0 by the careful addition of 1 M HCl. A 3.3 mM solution of the DNQ compound can be made by this method which is stable at least 24 hours. This represents a 30-fold increase in solubility of DNQ over PBS alone.
Although we were pleased to find active derivatives of DNQ that were up to 4-fold more soluble in water—sufficiently soluble for continuous IV infusion for human administration—this level of solubility was insufficient for animal studies by bolus injection. […] We used the same pH modulation protocol outlined for DNQ described in the specification above. The results are organized in Table 4.3 and FIG. 8. While all compounds were more soluble in HPβCD than in buffer alone, the fold increase in solubility varied widely.

[3] = Solubility in organic solvents; format: physicochemical; settings: for solubility: organic solvent or mixture, thermodynamic from solid
Description: The solubility of DNQ derivatives in organic solvents was determined by measuring the amount of a given solvent required to dissolve a known amount of compound. Solvent was added to the compound in 50 μL aliquots and the slurry was sonicated. […] Solubility was assessed in DMSO, dichloromethane, and 33% methanol in dichloromethane (FIGS. 9, 10, and 11, respectively).

[4] = Maximum tolerated dose in mice; settings: mouse, ip
Text: (§1) Because of the difficulty of repeated tail vein injections in mice, our group is using IP administration of compound.
(§2) All of these derivatives are currently being assessed for their maximum tolerated dose (MTD) in healthy mice. Compounds are formulated in HPβCD and delivered by IP injection to two mice once daily for five days.

healthy mice = test: in vivo; settings: mouse, 5 days
Text: as §1, §2

PAR-PARP1 = test: PARP1 hyperactivation (PAR-PARP1 formation) in vivo in orthotopic Lewis Lung Carcinoma model, immunoblotting; set-up: species or system NOD/SCID mice; settings: iv at or near MTD
Description: Antibodies that specifically detect poly(ADP-ribosyl)ated α-PAR (BD Pharmingen, San Jose, Calif.) proteins (e.g., the most abundant species, poly(ADP-ribosyl)ated PARP1, PAR-PARP1) and α-PARP1 (sc-8007, Santa Cruz Biotechnology) antibodies were used at 1:4000 and 1:2000 dilutions, respectively. α-Tubulin was monitored for loading.
To generate a known control to monitor the formation of poly(ADP-ribose)ylated-polymerase 1 (PAR-PARP1) in cells, LLC tumor cells were treated in vitro with hydrogen peroxide (H2O2, 0.5 μM) for 15 minutes, and whole cell protein lysates were separated by SDS-PAGE using the α-PAR (BD Pharmingen, San Jose, Calif.) antibody described above. PAR-PARP1 formation was then assessed by immunoblot analyses as previously described in Huang et al., Cancer Research, 2012.
LLC cells (1.0×10^6) were intravenously (iv) injected into the tail veins of female 18-20 gram NOD/SCID mice. Establishment of tumor nodules in the lungs of exposed mice were confirmed by bioluminescence and mice (5/group) were treated intravenously (via tail vein injection) with: (i) hydroxypropyl-beta-cyclodextrin (HPRCD) vehicle alone; (ii) DNQ (7.5 mg/kg); (ii) DNQ-87 (14 mg/kg); (iii) DNQ-107 (10 mg/kg); or (vi) DNQ 9-251 (20 mg/kg) dissolved in HPRCD. At specific times indicated (in mins) after injection of vehicle or drug, mice were euthanized, lungs removed and tumor nodules harvested. […] Extracts from cells treated with H2O2 were used as controls for monitoring PAR-PARP1 formation in LLC tumor cells.

[5] = Solubility in organic solvents; format: physicochemical; settings: Table 1; for solubility: organic solvent or mixture, thermodynamic from solid, THF
[6] = cited from earlier work
rats = settings: cited from earlier work
[7] = pH 7.4 PBS; cited from earlier work
[8] = 20% HPβCD in H2O; cited from earlier work
[9] = reported; cited from earlier work
NQO1+ cells = settings: in vitro; cited from earlier work
[10] = Homo sapiens, MCF7, Table 1, read-out: MCF7 IC50
[11] = Homo sapiens, MCF7, classification in figure legends of FIGS. 7-11, read-out: IC50 ("active" / generally "inactive" compounds)
[12] = 2:1 CH2Cl2:MeOH, Table 4.3, read-out: Solubility in 2:1 CH2Cl2:MeOH
[13] = CH2Cl2:MeOH 2:1, Table 1, read-out: CH2Cl2:MeOH 2:1 solubility
[14] = CH2Cl2, Table 1, read-out: CH2Cl2 solubility
[15] = DMSO, Table 1, read-out: DMSO solubility

| Molecule | IC50 (MCF-7 cells; [10]) | IC50 (MCF-7 cells; [11]) | Fold Protection of MCF7 cells w/ 25 μM dicoumarol (MCF-7 cells; Table 1) | NQO1 Initial Velocity @ 1 μM (NQO1) | solubility at 30 min [1] | solubility [2] | Solubility in CH2Cl2 ([3]; CH2Cl2, Table 4.3) | Solubility in DMSO ([3]; DMSO, Table 4.3) | solubility [3, 12] | solubility [3, 13] | solubility [3, 14] | solubility [3, 15] | PAR-PARP1 formation in tumor tissue (PAR-PARP1) | solubility [5] | other results |
| --- | --- | --- | --- | --- | --- | --- | --- | --- | --- | --- | --- | --- | --- | --- | --- |
| Cc1cc(=O)[nH]c2c1C(=O)c1c(C)cc(=O)n(CCC(C)(C)C)c1C2=O [Compound 9-251] | 190 ± 20 nM | < 500 nM | 8 | 2000 ± 100 | 7 µM (≈ 2.48 µg/mL) | 19 mM (≈ 6730 µg/mL) | 31 mM (≈ 11000 µg/mL) | 15 mM (≈ 5320 µg/mL) | 120 mM (≈ 42500 µg/mL) | 120 mM (≈ 42500 µg/mL) | 31 mM (≈ 11000 µg/mL) | 15 mM (≈ 5320 µg/mL) | higher levels of PAR-PARP1 formation | 23 mM (≈ 8150 µg/mL) | IC50 (MCF-7 cells; Homo sapiens, MCF7, Table 4.2, no DIC, ± s.e., read-out: IC50 vs. MCF-7 cells): 220 ± 40 nM; IC50 (MCF-7 cells; Homo sapiens, MCF7, read-out: IC50 vs. MCF-7 cells +25 μM DIC, Table 4.2, +25 μM DIC, ± s.e.): 1600 ± 600 nM; Fold protection by DIC (MCF-7 cells; Table 4.2): 7.1; fold increase in solubility in HPβCD over PBS alone [2]: 3000 fold; MTD at 5 days ([4]; in vivo): 22 mg/kg and 62 µmol/kg; tolerated concentration relative to DNQ (healthy mice): 3.5 fold |
| CCc1cc(=O)n(C)c2c1C(=O)c1c(C)cc(=O)[nH]c1C2=O [Compound 107] | 280 nM | < 500 nM | 4.5 | 1400 ± 100 | 439 µM (≈ 131 µg/mL) | 4.4 mM (≈ 1310 µg/mL) | 5.5 mM (≈ 1640 µg/mL) | 31 mM (≈ 9250 µg/mL) | 37 mM (≈ 11000 µg/mL) | 37 mM (≈ 11000 µg/mL) | 5.5 mM (≈ 1640 µg/mL) | 31 mM (≈ 9250 µg/mL) | higher levels of PAR-PARP1 formation | 4.7 mM (≈ 1400 µg/mL) | IC50 (MCF-7 cells; Homo sapiens, MCF7, 2 h, Table 4.1, 2 h exposure, no DIC, ± s.e., read-out: IC50 vs. MCF-7 cells): 280 ± 60 nM; IC50 (MCF-7 cells; Homo sapiens, MCF7, read-out: IC50 vs. MCF-7 cells +25 μM DIC, Table 4.1, +25 μM DIC, ± s.e.): 1300 ± 400 nM; Fold protection by DIC (MCF-7 cells; Table 4.1): 4.5; MTD at 5 days [4]: ≤ 10 mg/kg and ≤ 35 µmol/kg |
| 2-hydroxypropyl-beta-cyclodextrin [HPβCD] |  |  |  |  |  |  |  |  |  |  |  |  |  |  | tolerated dose by IP injection [6]: > 5 g/kg; MTD by IV injection (rats): approximately 2.25 g/kg |
| CC1(C)CCC2=C(O1)c1ccccc1C(=O)C2=O [β-lap, β-lapachone, reference compound] |  |  | 2.1 | 150 |  |  |  |  |  |  |  |  |  |  | IC50 (MCF-7 cells; Table 1, read-out: MCF7 IC50): 3700 nM; CH2Cl2:MeOH 2:1 solubility ([3]; CH2Cl2:MeOH 2:1, Table 1): 1400 mM; CH2Cl2 solubility ([3]; CH2Cl2, Table 1): 1650 mM; DMSO solubility ([3]; DMSO, Table 1): 170 mM; aqueous solubility [7]: ~160 µM (≈ 38.8 µg/mL); fold increase in solubility in HPβCD [8]: ~150 fold; THF solubility [5]: 660 mM; time to complete degradation in whole blood [9]: ≤ 30 min; LD50 (NQO1+ cells): 2 to 10 µM |
